Measurements taken from ChEMBL document CHEMBL1132070, “Piperidinyl-3-phosphinic acids as novel uptake inhibitors of the neurotransmitter gamma-aminobutyric acid (GABA)” (Bioorg Med Chem Lett, 1999).

Species: Rattus norvegicus
Test: Inhibition of [3H]GABA (gamma amino butyric acid) uptake in vitro in rat brain synaptosomes
Type: functional

Question: With `O=[PH](O)C1CCCN(CCC=C(c2ccccc2)c2ccccc2)C1` (stereo not given) as the compound, how does the IC50 read?
Answer: Its IC50 is 53 µM.

Question: With `O=C(O)C1CCCNC1` (stereo not given) [NIPECOTIC ACID] as the compound, how does the IC50 read?
Answer: Its IC50 is 4 µM.

Question: How did the IC50 turn out when `O=[PH](O)C1CCCNC1` (stereo not given) was run?
Answer: The IC50 was 24 µM.

Question: Which IC50 does the source give for `CP(=O)(O)C1CCCNC1` (stereo not given) here?
Answer: The IC50 was over 1000 µM.

Question: Which IC50 does the source give for `O=C(O)C1CCCN(CCC=C(c2ccccc2)c2ccccc2)C1` (stereo not given) here?
Answer: The IC50 was 0.1 µM.
